Data: paper PMC10669340, “Bioactive Compounds from an Endophytic Pezicula sp. Showing Antagonistic Effects against the Ash Dieback Pathogen” (Biomolecules, 2023)
Values after ≈ are worked out from the molar mass of the structure shown. “Also recorded” adds a separate entry of the source. Like-named read-outs stand apart in the source and are kept apart here. Values belong to the molecule of their own block, whether it stands above or below them.

Legend:
[1] = test system: H. fraxineus (isolate RH02-T6-B4-2); experiment: Agar disc diffusion assay; assay type: cell-based, Hymenoscyphus fraxineus; settings: for Antifungal activity, inhibition diameter: 6 mm disc, 7 days, 21 °C; for inhibitory effects against H. fraxineus (in words): 50 µg (1) and 20 µg (3) test substance per paper disc
Experimental: The antifungal activity of the isolated compounds against H. fraxineus was assessed by the disc diffusion method using 9 cm diameter petri dishes as previously described […] Three sterile filter paper discs per plate were gently placed on dried potato–dextrose agar. The fungicide nystatin was applied as the positive control (20 and 50 µg/paper disc) and methanol as the negative control (10 µL/paper disc). The test plates were incubated at 21 °C for 7 days, the inhibition diameters were measured, and the activity was evaluated compared to nystatin.
Figure S44: Agar disc (6 mm diam.) diffusion assay of compound CJ-17,572 (1) against H. fraxineus RH02-T6-B4-2, grown in 9-cm petri dishes on agar-based PD
medium with H. fraxineus, N - positive control nystatin, M - negative control methanol, CJ – 1.
Table S1. Antifungal activity of the compounds 1-6. n.i.: no inhibition, n.t.: not tested.
Compounds Amount ( µg/paper disc)
Peziculastatin n.t. n.i. 8 mm
Mycorrhizin A 19 mm 31 mm n.t.
Cryptosporioptide A n.t. n.i. n.i.
Cryptosporioptide B n.t. n.i. 8 mm
Cryptosporioptide C n.t. n.i. n.i.
Nystatin 21 mm 24 mm n.t.

[2] = test system: panel of mammalian cell lines; experiment: MTT cytotoxicity assay, panel (summary statements); assay type: cell-based; settings: 4–6 only KB3.1 and L929
Experimental: (§1) The in vitro cytotoxicity assay was performed using the MTT (3-(4,5-dimethylthiayol-2-yl)-2,5-diphenyltetrazolium bromide) test in 96-well microtiter plates as previously described.

[3] = test system: Fraxineus excelsior leaves; experiment: Phytotoxicity leaf puncture assay; settings: 1 mg/mL in MeOH, 20 µL on punctured leaves, evaluated after 3 days
Experimental: The phytotoxicity of the compounds 1, 3 and 4 was assessed using the leaf puncture assay as described previously. The other compounds could not be evaluated because of the limited quantity.
For this assay, similar leaves of the same Fraxineus excelsior plant were chosen onto which the compounds were applied. The pure compounds were dissolved at 1 mg/mL in MeOH. Then, 20 µL of test samples were applied to the adaxial sides of leaves that had previously been needle punctured. A total of 20 µL of MeOH in distilled water (4%) was applied on the leaves as the negative control and 1 mg/mL macrocidin A [23] as the positive control. Each treatment was repeated three times and then the leaves were placed on moistened paper filters in petri dishes (diameter 9 cm) to prevent the droplets from drying. The experiment was run in duplicate. Leaves were evaluated for the symptoms after 3 days.

[4] = MTT cytotoxicity assay; assay type: cell-based; settings: read-out: Cytotoxic activity (IC50)
Experimental: as §1

[5] = test system: panel of bacteria and fungi; experiment: Antimicrobial serial dilution assay, whole panel (summary statements); assay type: cell-based
Experimental: (§2) The antimicrobial activity (minimum inhibitory concentration, MIC) of the compounds was determined against Acinetobacter baumannii DSM 30008, Bacillus subtilis DSM 10, Chromobacterium violaceum DSM 30191, Escherichia coli DSM 1116, Mycobacterium smegmatis ATCC 700084, Pseudomonas aeruginosa PA14, Staphylococcus aureus DSM 346, Candida albicans DSM1665, Mucor hiemalis DSM 2656, Pichia anomala DSM 6766, Rhodotorula glutinis DSM 10134 and Schizosaccharomyces pombe DSM 70572 in a serial dilution assay as previously described.

[6] = test system: Bacillus subtilis DSM 10; experiment: Antimicrobial serial dilution assay (MIC); assay type: cell-based
Experimental: as §2

[7] = test system: Candida albicans DSM1665; experiment: Antimicrobial serial dilution assay (MIC); assay type: cell-based; settings: n.i.: no inhibition
Experimental: as §2

[8] = test system: Mucor hiemalis DSM 2656; experiment: Antimicrobial serial dilution assay (MIC); assay type: cell-based
Experimental: as §2

[9] = test system: Rhodotorula glutinis DSM 10134; experiment: Antimicrobial serial dilution assay (MIC); assay type: cell-based
Experimental: as §2

[10] = test system: Pseudomonas aeruginosa PA14; experiment: Antimicrobial serial dilution assay (MIC); assay type: cell-based; settings: n.i.: no inhibition
Experimental: as §2

[11] = test system: Chromobacterium violaceum DSM 30191; experiment: Antimicrobial serial dilution assay (MIC); assay type: cell-based
Experimental: as §2

[12] = test system: Schizosaccharomyces pombe DSM 70572; experiment: Antimicrobial serial dilution assay (MIC); assay type: cell-based
Experimental: as §2

[13] = test system: Escherichia coli DSM 1116; experiment: Antimicrobial serial dilution assay (MIC); assay type: cell-based; settings: n.i.: no inhibition
Experimental: as §2

[14] = test system: Mycobacterium smegmatis ATCC 700084; experiment: Antimicrobial serial dilution assay (MIC); assay type: cell-based; settings: Mycolicibacterium smegmatis
Experimental: as §2

[15] = test system: Staphylococcus aureus DSM 346; experiment: Antimicrobial serial dilution assay (MIC); assay type: cell-based
Experimental: as §2

[16] = test system: Pichia anomala DSM 6766; experiment: Antimicrobial serial dilution assay (MIC); assay type: cell-based; settings: Hansenula anomala
Experimental: as §2

[17] = test system: Acinetobacter baumannii DSM 30008; experiment: Antimicrobial serial dilution assay (MIC); assay type: cell-based; settings: n.i.: no inhibition
Experimental: as §2

[18] = test system: S. aureus; parameters: method as in PMID 24529574; settings: cited from earlier work
[19] = test system: Nocardioides simplex; parameters: method as in PMID 24529574; settings: cited from earlier work
[20] = test system: Nocardia sp.; parameters: method as in PMID 24529574; settings: cited from earlier work
[21] = test system: methicillin-resistant S. aureus (MRSA) strain N315e; parameters: method as in PMID 24529574; settings: cited from earlier work
[22] = test system: Micrococcus luteus; parameters: method as in PMID 24529574; settings: cited from earlier work
[23] = test system: Mycobacterium diernhoferi; parameters: method as in PMID 24529574; settings: cited from earlier work
[24] = 50 µg/paper disc, n.i.: no inhibition

SMILES: C[C@H]1CC[C@H]2[C@@H](C=C[C@H](C)[C@]2(C)C(=O)C2=C(O)[C@H]([C@@H](C)O)N(C)C2=O)C1 [Compound 1, CJ-17,572]
Antifungal activity, inhibition diameter ([1]; 20 µg/paper disc): 9 mm | inhibitory effects against H. fraxineus (in words) [1]: strong inhibitory effects | Antifungal activity, inhibition diameter [1, 24]: 11 mm | cytotoxicity against the tested cell lines (in words) [2]: active against all the tested cell lines | phytotoxic activity, leaf puncture assay [3]: brownish lesions | IC50 ([4]; human, A431): 23 µM | IC50 ([4]; human, A549): 4.4 µM | IC50 ([4]; human, KB3.1, n.c.: no cytotoxicity): 2.5 µM | IC50 ([4]; human, MCF-7): 2.7 µM | IC50 ([4]; human, PC-3): 3.3 µM | IC50 ([4]; human, SKOV-3): 3.3 µM | IC50 ([4]; mouse, L929, n.c.: no cytotoxicity): 5 µM | antimicrobial activity against the tested microorganisms (in words) [5]: moderate to weak antifungal activity | MIC ([6]; Bacillus subtilis, DSM10, read-out: Minimum inhibitory concentration (MIC)): 8.3 µg/mL (≈ 23 µM) | Minimum inhibitory concentration (MIC) [7]: n.i. | MIC ([8]; Mucor hiemalis, DSM2656, read-out: Minimum inhibitory concentration (MIC)): 4.2 µg/mL (≈ 11.6 µM) | MIC ([9]; Rhodotorula glutinis, DSM10134, read-out: Minimum inhibitory concentration (MIC)): 66.6 µg/mL (≈ 184 µM) | Minimum inhibitory concentration (MIC) [10]: n.i. | Minimum inhibitory concentration (MIC) ([11]; n.i.: no inhibition): n.i. | MIC ([12]; Schizosaccharomyces pombe, DSM70572, read-out: Minimum inhibitory concentration (MIC)): 33.3 µg/mL (≈ 92.1 µM) | Minimum inhibitory concentration (MIC) [13]: n.i. | MIC ([14]; ATCC700084, read-out: Minimum inhibitory concentration (MIC)): 66.6 µg/mL (≈ 184 µM) | MIC ([15]; Staphylococcus aureus, DSM346, read-out: Minimum inhibitory concentration (MIC)): 8.3 µg/mL (≈ 23 µM) | MIC ([16]; DSM6766, read-out: Minimum inhibitory concentration (MIC)): 33.3 µg/mL (≈ 92.1 µM) | Minimum inhibitory concentration (MIC) [17]: n.i.

SMILES: C/C=C/[C@@H]1C(C)=C[C@@H]2C[C@H](C)CC[C@H]2[C@]1(C)/C(O)=C1\C(=O)N[C@@H]([C@@H](C)O)C1=O [hymenosetin]
MIC [18]: ≤ 1.0 µg/mL | MIC [19]: ≤ 1.0 µg/mL | MIC [20]: ≤ 1.0 µg/mL | MIC [21]: ≤ 1.0 µg/mL | MIC [22]: ≤ 1.0 µg/mL | MIC [23]: ≤ 1.0 µg/mL

MIC ([6]; DSM10, Bacillus subtilis DSM 10, n.i.: no inhibition, read-out: Minimum inhibitory concentration (MIC)): 66.6 µg/mL (≈ 236 µM) | MIC ([7]; read-out: Minimum inhibitory concentration (MIC)): 66.6 µg/mL (≈ 236 µM) | MIC ([8]; DSM2656, Mucor hiemalis DSM 2656, n.i.: no inhibition, read-out: Minimum inhibitory concentration (MIC)): 4.2 µg/mL (≈ 14.9 µM) | MIC ([9]; DSM10134, Rhodotorula glutinis DSM 10134, n.i.: no inhibition, read-out: Minimum inhibitory concentration (MIC)): 8.3 µg/mL (≈ 29.4 µM) | Minimum inhibitory concentration (MIC) [10]: n.i. | MIC ([11]; DSM30191, n.i.: no inhibition, read-out: Minimum inhibitory concentration (MIC)): 66.6 µg/mL (≈ 236 µM) | MIC ([12]; DSM70572, Schizosaccharomyces pombe DSM 70572, n.i.: no inhibition, read-out: Minimum inhibitory concentration (MIC)): 33.3 µg/mL (≈ 118 µM) | Minimum inhibitory concentration (MIC) [13]: n.i. | MIC ([14]; ATCC700084, Mycobacterium smegmatis ATCC 700084, n.i.: no inhibition, read-out: Minimum inhibitory concentration (MIC)): 66.6 µg/mL (≈ 236 µM) | MIC ([15]; DSM346, Staphylococcus aureus DSM 346, n.i.: no inhibition, read-out: Minimum inhibitory concentration (MIC)): 66.6 µg/mL (≈ 236 µM) | MIC ([16]; DSM6766, Pichia anomala DSM 6766, n.i.: no inhibition, read-out: Minimum inhibitory concentration (MIC)): 16.6 µg/mL (≈ 58.7 µM) | Minimum inhibitory concentration (MIC) [17]: n.i.
SMILES: CC=C(Cl)C1=CC(=O)C23CC2C(C)(C)OC3(O)C1=O (centres unmarked) [Compound 3, Mycorrhizin A]
Antifungal activity, inhibition diameter ([1]; 20 µg/paper disc): 19 mm | inhibitory effects against H. fraxineus (in words) [1]: strong inhibitory effects | Antifungal activity, inhibition diameter [1, 24]: 31 mm | cytotoxicity against the tested cell lines (in words) [2]: active against all the tested cell lines | phytotoxic activity, leaf puncture assay [3]: brownish lesions; also recorded: most phytotoxic effects | IC50 ([4]; human, A431 squamous cell carcinoma cells): 1 µM | IC50 ([4]; human, A549 lung carcinoma cells): 22 µM | IC50 ([4]; human, KB3.1 endocervical adenocarcinoma cells, n.c.: no cytotoxicity): 11 µM | IC50 ([4]; human, MCF-7 breast adenocarcinoma cells): 0.64 µM | IC50 ([4]; human, PC-3 prostate cancer cells): 11 µM | IC50 ([4]; human, SKOV-3 ovarian carcinoma cells): 2.4 µM | IC50 ([4]; mouse, L929 fibroblast cells, n.c.: no cytotoxicity): 3.2 µM | antimicrobial activity against the tested microorganisms (in words) [5]: moderate to weak antifungal activity
